Experimental findings from patent US11459324B2, “O-glycoprotein-2-acetamido-2-deoxy-3-D-glycopyranosidase inhibitors” (BIOGEN MA INC., priority 2018, dated 2022) are described below.

Molecules are shown by their SMILES.

This experiment concerns the target T1, Recombinant full length human OGA enzyme (Homo sapiens, UniProt O60502).
T1 construct: Recombinant full length human OGA enzyme was purchased from Origene; purchased Origene
T1 sequence (O60502 1-916): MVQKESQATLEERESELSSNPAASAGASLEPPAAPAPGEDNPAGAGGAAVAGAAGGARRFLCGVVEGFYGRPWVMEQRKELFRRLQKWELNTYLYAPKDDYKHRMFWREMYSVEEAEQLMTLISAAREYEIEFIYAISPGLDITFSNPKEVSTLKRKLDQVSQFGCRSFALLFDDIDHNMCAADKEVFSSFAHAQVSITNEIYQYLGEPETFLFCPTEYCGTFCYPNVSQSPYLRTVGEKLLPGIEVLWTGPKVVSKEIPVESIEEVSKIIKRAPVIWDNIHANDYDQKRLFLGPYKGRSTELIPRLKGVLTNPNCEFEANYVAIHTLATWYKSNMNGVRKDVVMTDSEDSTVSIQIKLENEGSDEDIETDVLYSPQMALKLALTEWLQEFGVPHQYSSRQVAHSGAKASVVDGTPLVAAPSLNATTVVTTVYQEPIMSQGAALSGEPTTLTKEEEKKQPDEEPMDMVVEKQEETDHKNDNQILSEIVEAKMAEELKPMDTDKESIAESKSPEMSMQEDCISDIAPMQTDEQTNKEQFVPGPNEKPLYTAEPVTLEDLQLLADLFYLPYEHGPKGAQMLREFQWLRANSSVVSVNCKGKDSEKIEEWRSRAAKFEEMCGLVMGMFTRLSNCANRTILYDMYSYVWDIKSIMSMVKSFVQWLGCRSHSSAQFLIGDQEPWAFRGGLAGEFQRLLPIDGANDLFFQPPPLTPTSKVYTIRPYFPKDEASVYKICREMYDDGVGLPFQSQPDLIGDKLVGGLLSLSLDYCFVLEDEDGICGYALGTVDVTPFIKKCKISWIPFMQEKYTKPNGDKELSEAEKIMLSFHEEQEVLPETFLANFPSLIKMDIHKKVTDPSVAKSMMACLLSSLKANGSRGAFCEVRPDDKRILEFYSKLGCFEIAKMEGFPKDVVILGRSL
In words: OGA Enzyme Inhibition Biochemical Assay. The note with it: 1 nM OGA, 100 μM 4-MUGlcNAc (Km), pH 6.4, 90 minutes at room temperature, 10-point dose-response from 20 μM. On the procedure: OGA Enzyme Inhibition Biochemical Assay
Recombinant full length human OGA enzyme was purchased from Origene. 4-MUGlCNAc substrate was purchased from Sigma. All other reagents were purchased from Sigma or Fisher. Assay buffer consists of the McIlvaine buffer system, pH 6.4 (0.2M Na2HPO4 mixed with 0.1M citric acid) and 0.01% BSA. Reactions consist of 1 nM OGA, 100 μM 4-MUGlcNAc (Km), and compound in a final volume of 10 μl. Reactions were incubated for 90 minutes at room temperature and quenched with 40 μl of 3M glycine, pH 10 and read on a Perkin Elmer Envision plate reader (Ex: 355 nm/Em: 460 nm). Compounds were tested with a 10-point dose-response starting from 20 μM with a 4-fold dilution. Data was fit using GraphPad Prism using a 4-parameter fit with variable slope.
As to `CC(=O)Nc1ncc(CN2C[C@@H](Cc3ncc(F)cn3)C[C@H]2C(F)(F)F)s1` (single isomer, unassigned) [Example 2-45], the IC50 was found to be 0.13 µM. Under `CC(=O)Nc1ncc(CN2C[C@@H](Cc3ncc(F)cn3)C[C@@H]2C(F)(F)F)s1` (single isomer, unassigned) [Example 2-46] stands 3.9 µM. `CC(=O)Nc1ncc(CN2C[C@H](Cc3ncc(F)cn3)C[C@@H]2C(F)(F)F)s1` (single isomer, unassigned) [Example 2-47]: the IC50 stood at 1.2 µM. Take `CC(=O)Nc1nc(F)c(CN2C[C@@H](Cc3noc(C)n3)C[C@@H]2C)s1` (single isomer, unassigned) [Example 4-12 Peak 1]: the IC50 is less than 0.001 µM. Under `CC(=O)Nc1nc(F)c(CN2C[C@H](Cc3noc(C)n3)C[C@@H]2C)s1` (single isomer, unassigned) [Example 4-12 Peak 2] stands less than 0.001 µM. Under `CC(=O)Nc1nnc(CN2CCC[C@H](Cc3ncc(F)cn3)C2)s1` (stereo in doubt) [Example 3-14, N-(5-((3-((5-fluoropyrimidin-2-yl)methyl)piperidin-1-yl)methyl)-1,3,4-thiadiazol-2-yl)acetamide] stands 0.012 µM; under `CC(=O)Nc1ncc(CN2CCC[C@H](Cc3ccc(Cl)cc3)C2)s1` (stereo in doubt) [Example 4-25, N-(5-((3-(4-chlorobenzyl)piperidin-1-yl)methyl)thiazol-2-yl)acetamide], 0.0089 µM. Then `CC(=O)Nc1ncc(CN2CC[C@H](Cc3ccc(F)c(F)c3)C2)s1` (stereo in doubt) [Example 4-26, N-(5-((3-(3,4-difluorobenzyl)pyrrolidin-1-yl)methyl)thiazol-2-yl)acetamide], with 0.056 µM; and `CC(=O)Nc1ncc(CN2CCCC(Cc3ccc(F)cc3)C2)s1` (stereo not shown) [Example 1-1, N-(5-((3-(4-fluorobenzyl)piperidin-1-yl)methyl)thiazol-2-yl)acetamide], with 0.06 µM. With `CC(=O)Nc1ncc(CN2CCCC(Cc3ccccn3)C2)s1` (stereo not shown) [Example 1-2, N-(5-((3-(pyridin-2-ylmethyl)piperidin-1-yl)methyl)thiazol-2-yl)acetamide], the IC50 amounted to 0.004 µM.

For `COc1cccc(CC2CCCN(Cc3cnc(NC(C)=O)s3)C2)c1` (stereo not shown) [Example 1-3, N-(5-((3-(3-methoxybenzyl)piperidin-1-yl)methyl)thiazol-2-yl)acetamide], the IC50 amounted to 0.033 µM. For the compound `COc1ccc(CC2CCCN(Cc3cnc(NC(C)=O)s3)C2)cc1` (stereo not shown) [Example 1-4, N-(5-((3-(4-methoxybenzyl)piperidin-1-yl)methyl)thiazol-2-yl)acetamide], the IC50 is 0.008 µM.

With `CC(=O)Nc1ncc(CN2CCCC(Cc3cccc(F)c3)C2)s1` (stereo not shown) [Example 1-5, N-(5-((3-(3-fluorobenzyl)piperidin-1-yl)methyl)thiazol-2-yl)acetamide], the IC50 is 0.062 µM.

For `COc1cccc(CC2CCCN(Cc3cnc(NC(C)=O)s3)C2)n1` (stereo not shown) [Example 1-6, N-(5-((3-((6-methoxypyridin-2-yl)methyl)piperidin-1-yl)methyl)thiazol-2-yl)acetamide], the IC50 is 0.002 µM. Under `COc1cc(CC2CCCN(Cc3cnc(NC(C)=O)s3)C2)ccn1` (stereo not shown) [Example 1-7, N-(5-((3-((2-methoxypyridin-4-yl)methyl)piperidin-1-yl)methyl)thiazol-2-yl)acetamide] stands 0.003 µM. As for `COc1cncc(CC2CCCN(Cc3cnc(NC(C)=O)s3)C2)c1` (stereo not shown) [Example 1-8, N-(5-((3-((5-methoxypyridin-3-yl)methyl)piperidin-1-yl)methyl)thiazol-2-yl)acetamide], the IC50 turned out to be 0.029 µM.

On to `COc1ccnc(CC2CCCN(Cc3cnc(NC(C)=O)s3)C2)c1` (stereo not shown) [Example 1-9, N-(5-((3-((4-methoxypyridin-2-yl)methyl)piperidin-1-yl)methyl)thiazol-2-yl)acetamide], for which the IC50 amounted to 0.012 µM. As for `COc1ccc(CC2CCCN(Cc3cnc(NC(C)=O)s3)C2)nc1` (stereo not shown) [Example 1-10, N-(5-((3-((5-methoxypyridin-2-yl)methyl)piperidin-1-yl)methyl)thiazol-2-yl)acetamide], the IC50 turned out to be 0.02 µM. Under `COc1ccc(CC2CCCN(Cc3cnc(NC(C)=O)s3)C2)cn1` (stereo not shown) [Example 1-11, N-(5-((3-((6-methoxypyridin-3-yl)methyl)piperidin-1-yl)methyl)thiazol-2-yl)acetamide] stands 0.004 µM. Under `CC(=O)Nc1ncc(CN2CCCC(Cc3cncc(F)c3)C2)s1` (stereo not shown) [Example 1-12, N-(5-((3-((5-fluoropyridin-3-yl)methyl)piperidin-1-yl)methyl)thiazol-2-yl)acetamide] stands 0.007 µM; under `CC(=O)Nc1ncc(CN2CCCC(Cc3cc(F)ccn3)C2)s1` (stereo not shown) [Example 1-13, N-(5-((3-((4-fluoropyridin-2-yl)methyl)piperidin-1-yl)methyl)thiazol-2-yl)acetamide], 0.142 µM. Regarding `COc1cccc(CC2CCN(Cc3cnc(NC(C)=O)s3)C2)c1` (stereo not shown) [Example 1-14, N-(5-((3-(3-methoxybenzyl)pyrrolidin-1-yl)methyl)thiazol-2-yl)acetamide], the IC50 was found to be 0.022 µM. Turning to `COc1ccc(CC2CCN(Cc3cnc(NC(C)=O)s3)C2)cc1` (stereo not shown) [Example 1-15, N-(5-((3-(4-methoxybenzyl)pyrrolidin-1-yl)methyl)thiazol-2-yl)acetamide], the IC50 came out at 0.046 µM. Then `CC(=O)Nc1ncc(CN2CCC(Cc3cccc(F)c3)C2)s1` (stereo not shown) [Example 1-16, N-(5-((3-(3-fluorobenzyl)pyrrolidin-1-yl)methyl)thiazol-2-yl)acetamide], with 0.27 µM. Turning to `CC(=O)Nc1ncc(CN2CCC(Cc3ccc(F)cc3)C2)s1` (stereo not shown) [Example 1-17, N-(5-((3-(4-fluorobenzyl)pyrrolidin-1-yl)methyl)thiazol-2-yl)acetamide], the IC50 came to 0.18 µM. Under `COc1cccc(CC2CCN(Cc3cnc(NC(C)=O)s3)C2)n1` (stereo not shown) [Example 1-18, N-(5-((3-((6-methoxypyridin-2-yl)methyl)pyrrolidin-1-yl)methyl)thiazol-2-yl)acetamide] stands 0.017 µM; under `COc1cc(CC2CCN(Cc3cnc(NC(C)=O)s3)C2)ccn1` (stereo not shown) [Example 1-19, N-(5-((3-((2-methoxypyridin-4-yl)methyl)pyrrolidin-1-yl)methyl)thiazol-2-yl)acetamide], 0.01 µM. Then `COc1cncc(CC2CCN(Cc3cnc(NC(C)=O)s3)C2)c1` (stereo not shown) [Example 1-20, N-(5-((3-((5-methoxypyridin-3-yl)methyl)pyrrolidin-1-yl)methyl)thiazol-2-yl)acetamide], with 0.069 µM.

As for `COc1ccnc(CC2CCN(Cc3cnc(NC(C)=O)s3)C2)c1` (stereo not shown) [Example 1-21, N-(5-((3-((4-methoxypyridin-2-yl)methyl)pyrrolidin-1-yl)methyl)thiazol-2-yl)acetamide], the IC50 was found to be 0.013 µM.

With `COc1ccc(CC2CCN(Cc3cnc(NC(C)=O)s3)C2)nc1` (stereo not shown) [Example 1-22, N-(5-((3-((5-methoxypyridin-2-yl)methyl)pyrrolidin-1-yl)methyl)thiazol-2-yl)acetamide], the IC50 came out at 0.1 µM. Then `COc1ccc(CC2CCN(Cc3cnc(NC(C)=O)s3)C2)cn1` (stereo not shown) [Example 1-23, N-(5-((3-((6-methoxypyridin-3-yl)methyl)pyrrolidin-1-yl)methyl)thiazol-2-yl)acetamide], with 0.017 µM; and `CC(=O)Nc1ncc(CN2CCC(Cc3cncc(F)c3)C2)s1` (stereo not shown) [Example 1-24, N-(5-((3-((5-fluoropyridin-3-yl)methyl)pyrrolidin-1-yl)methyl)thiazol-2-yl)acetamide], with 0.031 µM. Under `CC(=O)Nc1ncc(CN2CCC(Cc3ccc(F)cn3)C2)s1` (stereo not shown) [Example 1-25, N-(5-((3-((5-fluoropyridin-2-yl)methyl)pyrrolidin-1-yl)methyl)thiazol-2-yl)acetamide] stands 0.22 µM; under `CC(=O)Nc1ncc(CN2CCCC(Cc3cncc(C(F)(F)F)n3)C2)s1` (stereo not shown) [Example 1-26, N-(5-((3-((6-(trifluoromethyl)pyrazin-2-yl)methyl)piperidin-1-yl)methyl)thiazol-2-yl)acetamide], 0.03 µM.
